In PubChem BioAssay (NCI):
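Growth conditions: 96-well plates. Treatment: test compound, 48 hours, 5 concentrations. Analysis: linear interpolation between bracketing concentrations; unreached endpoints set to highest concentration. GI50 = concentration required for 50% inhibition of growth. TGI denotes the concentration required for complete inhibition of growth.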

How the values were obtained:
Assay in all cases: NCI-60 cell line screen, 48 h
COLO 205 colon = test system: COLO 205 colon
MOLT-4 leukemia = test system: MOLT-4 leukemia
SR leukemia = test system: SR leukemia
NCI-H23 lung = test system: NCI-H23 lung
SNB-75 CNS = test system: SNB-75 CNS
CAKI-1 renal = test system: CAKI-1 renal
SF-539 CNS = test system: SF-539 CNS
MCF7 breast = test system: MCF7 breast
MDA-MB-231 breast = test system: MDA-MB-231 breast
UACC-257 melanoma = test system: UACC-257 melanoma

Structure (SMILES) | TGI (COLO 205 colon) | TGI (MOLT-4 leukemia) | TGI (SR leukemia) | TGI (NCI-H23 lung) | TGI (SNB-75 CNS) | TGI (CAKI-1 renal) | TGI (SF-539 CNS) | GI50 (MCF7 breast) | TGI (MCF7 breast) | GI50 (MDA-MB-231 breast) | TGI (MDA-MB-231 breast) | GI50 (MOLT-4 leukemia) | GI50 (NCI-H23 lung) | GI50 (UACC-257 melanoma) | TGI (UACC-257 melanoma) | GI50 (SNB-75 CNS) | GI50 (CAKI-1 renal) | GI50 (SF-539 CNS) | GI50 (COLO 205 colon) | GI50 (SR leukemia)
CN(C)CCn1cnc2ncccc2c1=O | > 100 µM | > 100 µM | > 100 µM | > 100 µM | > 100 µM | > 100 µM | > 100 µM | – | – | – | – | – | – | – | – | – | – | – | – | –
CCCCCCCCCCCCCCCCCCOc1ccccc1CC(=O)OCC[N+](CC)(CC)CC | – | 3.07 µM | – | 4.09 µM | 4.23 µM | 4.47 µM | 5.82 µM | 1.35 µM | 5.25 µM | 1.05 µM | 2.7 µM | 1.26 µM | 1.16 µM | 1.42 µM | 5.1 µM | 0.968 µM | 1.42 µM | 1.62 µM | – | –
CCOC(=O)C(NO)C(Sc1ccccc1)c1ccc(OC)cc1 (stereo not drawn) | > 100 µM | > 100 µM | > 100 µM | > 100 µM | > 100 µM | – | > 100 µM | – | – | – | – | – | – | – | > 100 µM | – | – | – | – | –
COC(=O)C1C(=O)O[C@@H](c2ccc(OC)c(OC)c2OC)C1C(=O)OC (mixture of isomers) | > 100 µM | > 100 µM | > 100 µM | > 100 µM | > 100 µM | > 100 µM | > 100 µM | – | – | – | – | – | – | – | > 100 µM | – | – | – | – | –
COc1cccc(/C=C/c2ccnc3ccccc23)c1OC | > 10 µM | > 10 µM | – | > 10 µM | > 10 µM | > 10 µM | > 10 µM | – | > 10 µM | – | > 10 µM | – | – | – | > 10 µM | – | – | – | – | –
CC1CCC(=O)C(C(O)CC2CC(=O)N(c3ccccc3)C(=O)C2)C1 (stereo not drawn) | > 100 µM | > 100 µM | > 100 µM | > 100 µM | > 100 µM | > 100 µM | > 100 µM | – | – | – | – | – | – | – | > 100 µM | – | – | – | – | –
CN(NC1OC(CO)C(O)C(O)C1O)c1ccccc1 (stereo not drawn) | > 100 µM | > 100 µM | > 100 µM | > 100 µM | – | > 100 µM | – | – | – | – | – | – | – | – | > 100 µM | – | – | – | – | –
C/C(=N\n1c(O)c(C#N)cc(C#N)c1=O)c1ccncc1 | > 100 µM | > 100 µM | > 100 µM | > 100 µM | – | > 100 µM | – | > 100 µM | > 100 µM | > 100 µM | > 100 µM | > 100 µM | > 100 µM | > 100 µM | > 100 µM | – | > 100 µM | – | > 100 µM | > 100 µM
COc1cc(-c2ccc(NC(=O)SCCC(=O)O)cc2OC)ccc1NC(=O)SCCC(=O)O | > 100 µM | > 100 µM | > 100 µM | > 100 µM | > 100 µM | > 100 µM | > 100 µM | – | – | – | – | – | – | – | > 100 µM | – | – | – | – | –
O=c1c2ccccc2nc(-c2ccccc2Cl)n1-c1nnc(C(F)(F)F)s1 | 21.3 µM | 20.4 µM | 24.6 µM | 17.3 µM | > 100 µM | 10.1 µM | 13 µM | 3.03 µM | > 100 µM | 2.59 µM | 9.38 µM | 3.99 µM | 3.23 µM | – | – | 3.47 µM | 2.82 µM | 3.21 µM | 3.86 µM | 3.73 µM
c1ccc(-c2n(Cc3ccc4ccccc4c3)cc[n+]2Cc2ccc3ccccc3c2)cc1 | – | – | 3.4 µM | 2.35 µM | 2.58 µM | – | 2.81 µM | – | – | 1.07 µM | 2.35 µM | – | 0.775 µM | – | – | 1.16 µM | – | 1.45 µM | – | 0.972 µM
O=C1C2c3[nH]c4ccccc4c3C3CCCCCC3C2C(=O)N1c1ccccc1 (stereo not drawn) | > 100 µM | 47.7 µM | > 53.9 µM | > 82.9 µM | 8.41 µM | > 100 µM | > 52 µM | – | – | – | – | – | – | – | 84.6 µM | – | – | – | – | –
O=S(=O)(c1ccccc1)N1CN2CN(C1)CN(S(=O)(=O)c1ccccc1)C2 | > 100 µM | – | > 100 µM | > 100 µM | 66.1 µM | > 100 µM | > 100 µM | – | > 100 µM | – | > 100 µM | – | – | – | > 100 µM | – | – | – | – | –
O=C(CO[N+](=O)[O-])OC/C=C/c1ccccc1 | > 100 µM | > 100 µM | > 100 µM | > 100 µM | > 100 µM | > 100 µM | > 100 µM | – | – | – | – | – | – | – | > 100 µM | – | – | – | – | –
CC[C@]1(O)CC2CN(CCc3c([nH]c4ccccc34)[C@@](C(=O)OC)(c3cc4c(cc3OC)N(C=O)[C@H]3[C@@](O)(C(=O)OC)[C@H](OC(C)=O)[C@]5(CC)C=CCN6CC[C@]43[C@@H]65)C2)C1 (stereo partly drawn) | < 0.005 µM | – | > 50 µM | > 50 µM | – | > 50 µM | > 17.9 µM | < 0.005 µM | > 50 µM | < 0.005 µM | 2.73 µM | < 0.005 µM | < 0.005 µM | < 0.005 µM | > 38.4 µM | – | 0.232 µM | < 0.005 µM | < 0.005 µM | < 0.005 µM
COC1OC(CBr)C(OC(=O)c2ccccc2)C(OS(=O)(=O)c2ccc(C)cc2)C1Br (stereo not drawn) | > 100 µM | > 100 µM | > 100 µM | > 100 µM | – | > 100 µM | > 100 µM | – | – | – | – | – | – | – | > 100 µM | – | – | – | – | –
COc1ccc2nc(-c3ccccc3)cc(Nc3cccc(C(C)=O)c3)c2c1 | 41.1 µM | > 100 µM | – | 33.1 µM | 38.4 µM | 28.2 µM | 3.66 µM | 7.95 µM | 33.2 µM | 9.65 µM | 28.3 µM | 7.57 µM | 14 µM | 18.3 µM | 78.7 µM | 12.2 µM | 12.6 µM | 1.67 µM | 6.58 µM | –
COc1cc(/C=C/c2ccc(Br)cc2)cc(OC)c1OC | 25.7 µM | 15.6 µM | > 100 µM | > 81.2 µM | 39.5 µM | > 87 µM | 31.9 µM | – | – | – | – | – | – | – | > 95.5 µM | – | – | – | – | –
Cc1ccc(-c2nc3cc(Cl)c(Cl)cc3nc2C#N)cc1 | > 100 µM | > 100 µM | – | > 100 µM | > 100 µM | > 100 µM | > 100 µM | > 100 µM | > 100 µM | > 100 µM | > 100 µM | > 100 µM | > 100 µM | > 100 µM | > 100 µM | > 100 µM | > 100 µM | > 100 µM | > 100 µM | –
COc1ccc(-c2ccccc2)c2[nH]c3c(c12)CCNC3=O | > 100 µM | > 100 µM | > 100 µM | > 100 µM | > 100 µM | > 100 µM | > 100 µM | – | – | – | – | – | – | – | > 100 µM | – | – | – | – | –
O=C(CCl)Nc1cc(Cl)c(Cl)cc1Cl | 3.35 µM | > 10 µM | > 10 µM | 3.28 µM | – | 4.88 µM | 3.04 µM | – | 3.6 µM | – | 2.9 µM | – | – | – | 3.24 µM | – | – | – | – | –
